Assay results as given in patent US7792665B2, “Method for designing a compound based on the three dimensional structure of phosphoinositide dependent protein kinase 1 (PDK1)” (Medical Research Council, priority 2002, dated 2010).
Residue numbers refer to the chain shown, from its start. Where a SMILES comes first, the peptide text is derived from it. [ ]: non-standard residue; d: D form. pT = C[C@@H](OP(=O)(O)O)[C@H](N)C(=O)O

Experiments:
[1] = biological target: T1, PDK1[K76A] (Homo sapiens, UniProt O15530, K76A); experiment: Surface plasmon resonance (BiaCore) binding, PDK1[K76A]; settings: relative to wild type PDK1
T1 construct: made in house; host or cells: human embryonic kidney 293 cells (pEBG2T vector)
T1 sequence (O15530 1-556 K76A): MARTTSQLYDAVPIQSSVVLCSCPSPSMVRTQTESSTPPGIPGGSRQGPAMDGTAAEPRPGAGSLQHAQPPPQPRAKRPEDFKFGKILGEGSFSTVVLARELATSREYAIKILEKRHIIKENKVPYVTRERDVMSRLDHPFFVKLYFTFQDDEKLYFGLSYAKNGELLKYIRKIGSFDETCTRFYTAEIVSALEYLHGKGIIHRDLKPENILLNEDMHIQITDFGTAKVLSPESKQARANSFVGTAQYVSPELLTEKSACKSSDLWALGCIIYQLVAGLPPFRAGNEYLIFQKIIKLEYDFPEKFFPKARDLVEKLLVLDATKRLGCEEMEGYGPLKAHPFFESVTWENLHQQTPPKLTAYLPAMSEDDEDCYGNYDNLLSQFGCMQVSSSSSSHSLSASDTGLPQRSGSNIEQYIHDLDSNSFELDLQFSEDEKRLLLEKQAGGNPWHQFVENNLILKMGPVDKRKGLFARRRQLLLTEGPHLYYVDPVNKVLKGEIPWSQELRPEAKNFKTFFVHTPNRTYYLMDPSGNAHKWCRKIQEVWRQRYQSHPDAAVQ
Protocol: Binding and activation of wild type and mutant forms of PDK1 to a phosphopeptide derived from the hydrophobic motif of S6K1. The binding of the wild type (wt) PDK1 and indicated mutants to a phosphopeptide comprising the hydrophobic motif of S6K1 (S6K-pHM: […]*YVAPSV, where T* indicates phospho-threonine, SEQ ID NO:104) was analysed by surface plasmon resonance as described in the Materials and Methods.
A. The sensor chip SA was coated with 12RUs of the biotinylated S6K-pHM peptide and the binding was analysed following injection of 270 nM wild type PDK1, PDK1 [T148A] and PDK1 [K76A]. […] (data not shown).
B. As in A. except that binding was analysed over a range of PDK1 concentrations (2-2150 nM). The response level at the steady state binding is plotted versus the log of the PDK1 concentration. The estimated Kd was obtained by fitting the data to a sigmoid curve using Kaleidagraph software.
Binding was analysed in a BiaCore 3000 system (BiaCore AB, Stevenage, UK). Biotinylated S6K-pHM (Biotin-C12-[…](P)YVAPSV) (SEQ ID NO:104) or the non-phosphorylated form of this peptide S6K-HM was bound to an streptavidin-coated Sensor chip (SA) (12 response units, RU). […] Steady state binding was determined at each concentration. Dissociation of PDK1 from the phospho-peptide was monitored over a 1 min period. […]

[2] = biological target: T2, PDK1[T148A] (Homo sapiens, UniProt O15530, T148A); experiment: PDK1 catalytic activity towards T308tide, activation by peptides, PDK1[T148A]; assay type: biochemical; set-up: made in house; settings: T308tide substrate
T2 sequence (O15530 1-556 T148A): T1 sequence (O15530 1-556 K76A) with A76K, T148A
Protocol: C. Activation of the indicated forms of PDK1 by 56K-pHM and S6K-HM. PDK1 activity was measured using the peptide substrate (T308tide) in the presence of the indicated concentrations of 56K-pHM (closed circles) and S6K-HM (open circles) as described in the methods. Assays were performed in triplicate and similar results obtained in 2 separate experiments. The results are the average—SD for a single experiment.
The ability of wild type and mutant PDK1 to phosphorylate the synthetic peptide T308tide ([…] ([Biondi et al., 2000]) (SEQ ID NO:108) was carried out in 30 μl assays containing 100 ng of wild type or mutant PDK1, 50 mM Tris/HCl pH 7.5, 0.1% 13-mercaptoethanol, 10 mM MgCl2, 100 μM [32γ P]ATP (200 cpm/pmol), 0.5 μM microcystin-LR, 1 mM T308tide in the presence or absence of the indicated concentrations of the 56K-pHM peptide ([…](P)YVAPSV) (SEQ ID NO:104) or 56K-HM. peptide ([…]) (SEQ ID NO:105). After incubation for 10 min at 30° C., 25 μl of the resultant mixture was spotted into P81 phosphocellulose paper (2×2 cm) and the papers washed and analysed as described previously for assays of MAP kinase. Control assays were carried out in parallel in which either PDK1, or peptide substrate were omitted; these values were always less than 5% of the activity measured in the presence of these reagents. […]

SMILES: CC(C)C[C@H](NC(=O)[C@H](Cc1ccccc1)NC(=O)[C@@H](NC(=O)[C@H](CCC(N)=O)NC(=O)[C@H](CC(N)=O)NC(=O)[C@H](C)NC(=O)[C@H](CO)NC(=O)[C@H](CCC(=O)O)NC(=O)[C@@H](N)CO)C(C)C)C(=O)NCC(=O)N[C@@H](Cc1ccccc1)C(=O)N[C@H](C(=O)N[C@@H](Cc1ccc(O)cc1)C(=O)N[C@H](C(=O)N[C@@H](C)C(=O)N1CCC[C@H]1C(=O)N[C@@H](CO)C(=O)N[C@H](C(=O)O)C(C)C)C(C)C)[C@@H](C)OP(=O)(O)O [S6K-pHM] (H-SESANQVFLGF[pT]YVAPSV-OH; N-terminus and C-terminus assumed)
- lower affinity of PDK1[K76A] than wild type PDK1 [1]: 3 fold
- activation of PDK1[T148A] [2]: activated similarly as wild type PDK1
